In ChEMBL document CHEMBL1201862, “PubChem BioAssay data set” (2004):
Activity calls are given as the source filed them. Cut-off read from the data, not from the text of the source: actives have a measured IC50 and inactives only a lower limit.

Target: Envelope glycoprotein gp160 (Human immunodeficiency virus 1, UniProt Q6QLK5)
Assay: inhibitors of HIV fusion peptide binding, primary screen, biochemical, uHTS, fluorescence dequenching (AID 1986)

Sequence of Envelope glycoprotein gp160 (Q6QLK5 whole entry, the tested form may be a part): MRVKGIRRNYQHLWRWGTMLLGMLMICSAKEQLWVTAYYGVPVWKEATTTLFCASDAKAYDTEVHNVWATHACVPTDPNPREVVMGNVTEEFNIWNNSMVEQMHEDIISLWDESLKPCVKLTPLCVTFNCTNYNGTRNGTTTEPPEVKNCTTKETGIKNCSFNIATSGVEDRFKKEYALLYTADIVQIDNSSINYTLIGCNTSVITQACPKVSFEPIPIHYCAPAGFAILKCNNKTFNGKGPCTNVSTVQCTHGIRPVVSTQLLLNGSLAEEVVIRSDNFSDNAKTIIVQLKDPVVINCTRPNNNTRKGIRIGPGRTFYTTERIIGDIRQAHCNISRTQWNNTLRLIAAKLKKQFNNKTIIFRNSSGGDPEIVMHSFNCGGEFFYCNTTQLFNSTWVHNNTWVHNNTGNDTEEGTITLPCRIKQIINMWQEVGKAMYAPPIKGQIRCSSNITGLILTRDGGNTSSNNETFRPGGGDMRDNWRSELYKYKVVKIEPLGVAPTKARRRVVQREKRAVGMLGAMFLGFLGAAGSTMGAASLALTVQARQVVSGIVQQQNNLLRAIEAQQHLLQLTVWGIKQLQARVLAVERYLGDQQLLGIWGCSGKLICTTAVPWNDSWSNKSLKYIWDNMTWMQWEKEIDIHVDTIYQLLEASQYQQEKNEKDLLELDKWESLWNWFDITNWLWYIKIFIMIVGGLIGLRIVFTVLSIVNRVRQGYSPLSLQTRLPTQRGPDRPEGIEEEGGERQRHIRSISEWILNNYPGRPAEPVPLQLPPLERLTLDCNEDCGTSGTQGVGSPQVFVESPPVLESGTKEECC

CC(/C=C1\SC(=S)N(c2ccc(C(=O)O)cc2)C1=O)=C\c1ccccc1
IC50: 16.2 µM (active)

C=CCOc1ccc(C(c2c(C(=O)O)[nH]c3ccccc23)c2c(C(=O)O)[nH]c3ccccc23)cc1
IC50: 5.01 µM (active)
